Source: patent publication US20030050306A1, “Novel heteroaryl derivatives, their preparation and use” (H. Lundbeck A/S, priority 1999, published 2003)
Structures can show the parent of a compound that is named as a salt.

System: not given
Experiment: not given
Conditions: not given

Compound	melting point
Cc1cc(F)ccc1OCCCN1CCN(c2cccc3c2OCCO3)CC1 (as salt: oxalate) [Compound 1e, 1-(2,3-Dihydro-benzo[1,4]dioxin-5-yl)-4-[3-(4-fluoro-2-methyl-phenoxy)-propyl]-piperazine]	139 to 150 °C
Clc1cccc(Cl)c1OCCCN1CCN(c2cccc3c2OCCO3)CC1 (as salt: oxalate) [Compound 1b, 1-[3-(2,6-Dichloro-phenoxy)-propyl]-4-(2,3-dihydro-benzo[1,4]dioxin-5-yl)-piperazine]	179 to 181 °C
Fc1ccccc1OCCCN1CCN(c2cccc3c2OCCO3)CC1 (as salt: oxalate) [Compound 2c, 1-(2,3-Dihydro-benzo[1,4]dioxin-5-yl)-4-[3-(2-fluoro-phenoxy)-propyl]-piperazine]	167 to 169 °C
FC(F)(F)c1ccc(OCCCN2CCN(c3cccc4c3OCCO4)CC2)cc1 (as salt: oxalate) [Compound 2b, 1-(2,3-Dihydro-benzo[1,4]dioxin-5-yl)-4-[3-(4-trifluoromethyl-phenoxy)-propyl]-piperazine]	148 to 150 °C
COc1cc(F)ccc1OCCCN1CCN(c2cccc3c2OCCO3)CC1 (as salt: oxalate) [Compound 1d, 1-(2,3-Dihydro-benzo[1,4]dioxin-5-yl)-4-[3-(4-fluoro-2-methoxy-phenoxy)-propyl]-piperazine]	141 to 142 °C
Fc1cc(F)c(OCCCN2CCN(c3cccc4c3OCCO4)CC2)c(F)c1 (as salt: hydrochloride) [Compound 1c, 1-(2,3-Dihydro-benzo[1,4]dioxin-5-yl)-4-[3-(2,4,6-trifluoro-phenoxy)-propyl]-piperazine]	210 to 220 °C
Fc1ccc(OCCCCN2CCN(c3cccc4ccsc34)CC2)c(Cl)c1 (as salt: hydrochloride) [Compound 2f, 1-Benzo[b]thiophen-7-yl-4-[4-(2-chloro-4-fluoro-phenoxy)-butyl]-piperazine]	193 to 195 °C
Fc1ccc(SCCCN2CCN(c3cccc4ccsc34)CC2)c(Cl)c1 (as salt: hydrochloride) [Compound 2e, 1-Benzo[b]thiophen-7-yl-4-[3-(2-chloro-4-fluoro-phenylsulfanyl)-propyl]-piperazine]	216 to 219 °C

More lines, now with the values ahead:

melting point	Compound
200 to 202 °C	Fc1ccc(SCCN2CCN(c3cccc4c3OCCO4)CC2)cc1 (as salt: oxalate) [Compound 3b, 1-(2,3-Dihydro-benzo[1,4]dioxin-5-yl)-4-[2-(4-fluoro-phenylsulfanyl)-ethyl]-piperazine]
152 to 154 °C	N#Cc1ccc(N2CCN(CCCOc3ccc(F)cc3Br)CC2)c2c1OCCO2 (as salt: oxalate) [Compound 6b, 8-{4-[3-(2-Bromo-4-fluoro-phenoxy)-propyl]-piperazin-1-yl}-2,3-dihydro-benzo[1,4]dioxine-5-carbonitrile]
188 to 191 °C (dec.)	Clc1cccc(Cl)c1SCCN1CCN(c2cccc3c2OCCO3)CC1 (as salt: oxalate) [Compound 3d, 1-[2-(2,6-Dichloro-phenylsulfanyl)-ethyl]-4-(2,3-dihydro-benzo[1,4]dioxin-5-yl)-piperazine]
96 to 98 °C	N#Cc1ccc(N2CCN(CCCOc3ccccc3Cl)CC2)c2c1OCCO2 (as salt: oxalate) [Compound 6c, 8-{4-[3-(2-Chloro-phenoxy)-propyl]-piperazin-1-yl}-2,3-dihydro-benzo[1,4]dioxine-5-carbonitrile]

Target: T1, cloned human 5-HT1A receptors (Homo sapiens, UniProt P08908)
T1 construct: expressed in transfected cells; host or cells: HeLa cells (HA7)
T1 sequence (P08908 1-422): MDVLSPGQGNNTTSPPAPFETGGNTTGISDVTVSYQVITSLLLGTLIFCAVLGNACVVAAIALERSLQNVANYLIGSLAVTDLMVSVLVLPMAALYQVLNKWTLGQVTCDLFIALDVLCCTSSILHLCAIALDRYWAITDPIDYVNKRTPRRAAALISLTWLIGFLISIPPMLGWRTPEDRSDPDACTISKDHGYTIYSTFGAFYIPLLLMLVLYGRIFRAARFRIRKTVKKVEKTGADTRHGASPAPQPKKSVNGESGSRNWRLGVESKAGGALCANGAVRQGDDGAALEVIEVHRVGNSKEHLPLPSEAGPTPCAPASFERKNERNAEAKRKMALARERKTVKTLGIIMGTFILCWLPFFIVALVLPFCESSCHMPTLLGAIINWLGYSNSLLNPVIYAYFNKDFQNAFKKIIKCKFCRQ
Experiment: Inhibition of 3H-5-CT binding to human 5-HT1A receptors
Conditions: at 100 nM; cloned human 5-HT1A receptors in HeLa cells (HA7)
Summary of the method: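 Cloned human 5-HT1A receptors stably expressed in transfected HeLa cells (HA7); 40 μg cell homogenate incubated 15 min at 37° C in 50 mM Tris pH 7.7 with 3H-5-CT. Non-specific binding defined with 10 μM metergoline; bound radioligand separated by rapid GF/B filtration and counted.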

Compound	inhibition at 0.1 µM [%]
N#Cc1cccc(OCCCCN2CCN(c3cccc4c3OCCO4)CC2)c1 [Compound 7bh, 3-{4-[4-(2,3-Dihydro-benzo[1,4]dioxin-5-yl)-piperazin-1-yl]-butoxy}-benzonitrile]	95
C=CCc1cccc(Cl)c1OCCN1CCN(c2cccc3c2OCCO3)CC1 [Compound 7ai, 1-[2-(2-Allyl-6-chloro-phenoxy)-ethyl]-4-(2,3-dihydro-benzo[1,4]dioxin-5-yl)-piperazine]	90

Same assay, conditions: cloned human 5-HT1A receptors in HeLa cells (HA7)

IC50 [nM]	Compound
76	Clc1ccc(SCCN2CCN(c3cccc4c3OCCO4)CC2)cc1Cl [Compound 3a, 1-[2-(3,4-Dichloro-phenylsulfanyl)-ethyl]-4-(2,3-dihydro-benzof[, 4]dioxin-5-yl)-piperazine]

Target: T2, human cloned dopamine D4.2 receptors (Homo sapiens, UniProt P21917, DEL265-296)
T2 construct: expressed in transfected cells; host or cells: CHO cells
T2 sequence (P21917 with tags, fused parts or gaps DEL265-296): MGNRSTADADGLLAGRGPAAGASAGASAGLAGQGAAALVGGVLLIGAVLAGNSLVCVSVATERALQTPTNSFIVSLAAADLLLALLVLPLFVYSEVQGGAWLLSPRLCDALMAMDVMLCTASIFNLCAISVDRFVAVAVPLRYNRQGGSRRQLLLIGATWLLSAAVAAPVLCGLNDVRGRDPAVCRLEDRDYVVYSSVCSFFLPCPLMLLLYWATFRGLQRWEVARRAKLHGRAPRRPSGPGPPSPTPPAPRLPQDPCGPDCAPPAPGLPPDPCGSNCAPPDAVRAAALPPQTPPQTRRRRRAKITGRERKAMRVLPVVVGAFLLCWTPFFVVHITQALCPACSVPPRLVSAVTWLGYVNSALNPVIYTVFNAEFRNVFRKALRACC
Experiment: Inhibition of the binding of 3H-YM-09151-2 to human dopamine D4 receptors
Conditions: at 50 nM; human cloned dopamine D4.2 receptors in CHO-cells
Summary of the method: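 Radioligand displacement of [3H]YM-09151-2 (0.06 nM) from membranes of CHO cells expressing cloned human D4.2 receptors, measured in vitro.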

Compound	inhibition at 0.05 µM [%]
N#Cc1cccc(OCCCCN2CCN(c3cccc4c3OCCO4)CC2)c1 [Compound 7bh, 3-{4-[4-(2,3-Dihydro-benzo[1,4]dioxin-5-yl)-piperazin-1-yl]-butoxy}-benzonitrile]	84
C=CCc1cccc(Cl)c1OCCN1CCN(c2cccc3c2OCCO3)CC1 [Compound 7ai, 1-[2-(2-Allyl-6-chloro-phenoxy)-ethyl]-4-(2,3-dihydro-benzo[1,4]dioxin-5-yl)-piperazine]	82

Same assay, conditions: human cloned dopamine D4.2 receptors in CHO-cells

IC50 [nM]	Compound
5.4	Clc1ccc(SCCN2CCN(c3cccc4c3OCCO4)CC2)cc1Cl [Compound 3a, 1-[2-(3,4-Dichloro-phenylsulfanyl)-ethyl]-4-(2,3-dihydro-benzof[, 4]dioxin-5-yl)-piperazine]
